Results on 17 compounds are retold here after patent publication US9714266B2, “Estra-1,3,5(10),16-tetraene-3-carboxamides for inhibition of 17β-hydroxysteroid dehydrogenase (AKR1C3)” (priority 2013, dated 2017).

Converted amounts (≈) assume the structure as drawn. “And” between values parts separate entries of the source, which are not always exact repeats. Identical values can stand only once. Like-named read-outs stand apart in the source and are kept apart here.

Series [1] has as its target T1, AKR1C3 (Homo sapiens (Human), UniProt P42330). Description: AKR1C3 enzyme assay (coumberone reduction, fluorescence). Type of series: biochemical. As to conditions: recombinant human AKR1C3, coumberone 0.3 μM, NADPH 10 μM; read-out: AKR1C3 enzyme inhibition IC50. The protocol: The AKR1C3-inhibitory action of the substances of this invention was measured in the AKR1C3 assay described in the paragraphs which follow. Essentially, the enzyme activity is measured by quantifying the coumberol formed from coumberone ([…]., and […]. AM. CHEM. SOC. 130, 14123-14128 (2008) […]., Bauman, D. R., Penning, T. M., and […]., Proc. Natl. Acad. Sci. USA 103, 13304-13309 (2006)). In this assay, the increase in the highly fluorescent coumberol can be determined by NADPH (nicotinamide adenine dinucleotide phosphate)-dependent reduction of the nonfluorescent coumberone by AKR1C3. […] NM_003739). This was expressed as the GST (glutathione S-transferase) fusion protein in E. coli and purified by means of glutathione-Sepharose affinity chromatography. The GST was removed by thrombin digestion with subsequent size exclusion chromatography (Dufort, I., Rheault, P., Huang, X F., Soucy, P., and Luu-The, V., Endocrinology 140, 568-574 (1999)). […] The concentration of the AKR1C3 was matched to the respective activity of the enzyme preparation and set such that the assay worked within the linear range. Typical concentrations were in the region of 1 nM. The reaction was stopped by adding 5 μl of a stop solution consisting of the inhibitor EM-1404 [F. Labrie et al. U.S. Pat. […] Subsequently, the fluorescence of coumberol was measured at 520 nm (excitation at 380 nm) with a suitable measuring instrument (Pherastar from BMG Labtechnologies).

The nature of series [2]: Kinetic solubility by laser nephelometry. Type of series: physicochemical. As to conditions: kinetic from dmso stock. The protocol: The kinetic solubilities of the inventive substances were determined by laser nephelometry.
The data were recorded using the following instruments:
Liquid handling system: Hamilton Star
Nephelometer: Nepheloskan Ascent
The following chemicals and materials were used: […]
disodium hydrogenphosphate dihydrate potassium dihydrogenphosphate
Preparation of phosphate buffer pH 7.4:
• Solution 1: 9.71 g of disodium hydrogenphosphate dihydrate and • 1.65 g of potassium dihydrogenphosphate dissolved in 1 liter of water • Solution 2: 10 mg of gum arabic dissolved in 1 liter of water […]
150 ml of solution 1 and 100 ml of solution 2 were diluted with 750 ml of water.
150 μl of a 10 mM DMSO stock solution were pipetted into a plate (deep-well plate, Abgene, PP, 1.2 ml). The stock solution was diluted with DMSO, which led to a new multi-titre plate (MTP, Greiner bio-one, PS, V-Form) with eight concentrations: 10/5/2.5/1.25/0.625/0.313/0.156 and 0.078 mM. 261 μl of phosphate buffer were transferred into a further plate (96 cliniplate, UB Thermo Electron Corporation) and admixed with 9 μl of the DMSO stock solutions.
The concentration of the DMSO cosolvent was kept constant at 3%.
The plates obtained (cliniplates) were analysed in the nephelometer.

Series [3] has as its target T1, AKR1C3. Description: AKR1C3 inhibition in a cell-based system (transfected HEK293 cells, coumberol fluorescence). Particulars: HEK293 cells transfected with AKR1C3 expression plasmid; read-out: Cellular AKR1C3 inhibition IC50. The protocol: The inhibition of AKR1C3 by the substances described in this invention was measured in a cell-based assay using […] as the substrate for the AKR1C3 (Halim, M., Yee, D. J., and Sames, D., J. AM. CHEM. SOC. 130, 14123-14128 (2008) and Yee, D. J., Balsanek, V., Bauman, D. R., Penning, T. M., and Sames, D., Proc. Natl. Acad. Sci. USA 103, 13304-13309 (2006)) (cf. Example 48).
The cell system used was HEK293 cells (ATCC, USA) (cell culture medium: DMEM, 1.5 g of glucose, 10% FCS, PSG). The cells were transfected with an AKR1C3 expression plasmid (pCMV6-AC-AKR1C3, GenBank Accession No. NM_003739.4) overnight (X-tremeGENE HP, Roche). The next morning, the cells were sown into black 96-well culture plates with a cell density of 40 000 cells/well (Greiner Bio-One, Frickenhausen, Germany). 7 h later, the cells were incubated with the test substances (dissolved in 100× concentration in DMSO, final concentration between 10^−11M and 10^−5M) and […] (dissolved in cell culture medium, final concentration 5×10^−6M) overnight. The following morning, the fluorescence of coumberol was measured at 535 nm (excitation at 355 nm) with a suitable measuring instrument (Mithras, from Berthold). […] The data were normalized (transfected cells without inhibitor, only DMSO=0% inhibition; transfected cells, 10 μM EM-1404 inhibitor [F. Labrie et al. U.S. Pat. No. 6,541,463, 2003]=100% inhibition) and IC50 values were calculated by a 4-parameter fit.

Where [4] appears, read: phosphate buffer with 3% DMSO, aqueous buffer, phosphate buffer pH 7.4, 3% DMSO, read-out: Nephelometric solubility at pH = 7.4.

T1 sequence (P42330 whole entry): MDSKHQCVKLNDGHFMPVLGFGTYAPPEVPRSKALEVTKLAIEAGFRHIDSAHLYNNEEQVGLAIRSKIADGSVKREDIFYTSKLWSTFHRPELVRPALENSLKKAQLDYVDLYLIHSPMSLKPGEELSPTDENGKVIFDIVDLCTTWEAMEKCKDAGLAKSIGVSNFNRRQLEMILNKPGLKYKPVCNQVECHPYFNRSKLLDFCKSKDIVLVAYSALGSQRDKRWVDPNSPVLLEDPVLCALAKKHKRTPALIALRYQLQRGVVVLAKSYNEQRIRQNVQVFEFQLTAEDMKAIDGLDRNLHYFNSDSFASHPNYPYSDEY

Consider `CN(CC(O)CO)C(=O)c1ccc2c(c1)CC[C@@H]1[C@@H]2CC[C@]2(C)C(c3cncc(F)c3)=CC[C@@H]12` (mixture of isomers) [Example 35, N—[(RS)-2,3-dihydroxypropyl]-17-(5-fluoropyridin-3-yl)-N-methyloestra-1,3,5(10),16-tetraene-3-carboxamide], for which the IC50 (in general, the midpoint of a concentration-inhibition curve) on AKR1C3 [1] was 17 nM. In addition, the solubility (in general, the dissolved amount per volume that the medium holds) in series [2] (setting [4]) came to 22 µg/mL. Regarding `CC1(C)CC[C@@]2(CC[C@H]3[C@@H]4CCc5cc(C(N)=O)ccc5[C@H]4CC[C@@]32C)OC1=O` [EM-1404, reference compound], in series [2] (setting [4]), the solubility amounted to 18 µg/mL (≈ 45.5 µM). Consider `C[C@]12C[C@H](F)[C@@H]3c4ccc(C(N)=O)cc4CC[C@H]3[C@@H]1CC=C2c1cncc(F)c1` [Example 7, 11β-fluoro-17-(5-fluoropyridin-3-yl)oestra-1,3,5(10),16-tetraene-3-carboxamide], for which the IC50 on AKR1C3 [1] was 27 nM; at AKR1C3 [3], 83 nM and 150 nM. Consider `C[C@@H](CO)CCNC(=O)c1ccc2c(c1)CC[C@@H]1[C@@H]2CC[C@]2(C)C(c3cncc(F)c3)=CC[C@@H]12` [Example 12, 17-(5-fluoropyridin-3-yl)-N—[(R)-3-(hydroxymethyl)butyl]estra-1,3,5(10),16-tetraene-3-carboxamide], for which the IC50 is 21 nM and 20 nM at AKR1C3 [1]; 68 nM and 96 nM and 43 nM and 23 nM at AKR1C3 [3]. Turning to `CC(C)[C@H](CO)NC(=O)c1ccc2c(c1)CC[C@@H]1[C@@H]2CC[C@]2(C)C(c3cncc(F)c3)=CC[C@@H]12` [Example 16, 17-(5-fluoropyridin-3-yl)-N—[(R)-1-(hydroxymethyl)-2-methylpropyl]oestra-1,3,5(10),16-tetraene-3-carboxamide], the IC50 at AKR1C3 [1] was 15 nM and 42 nM; at AKR1C3 [3], 97 nM and 74 nM. Take `C[C@]12CC[C@@H]3c4ccc(C(=O)N5CCC[C@@H](O)C5)cc4CC[C@H]3[C@@H]1CC=C2c1cncc(F)c1` [Example 17, 17-(5-fluoropyridin-3-yl)oestra-1,3,5(10),16-tetraen-3-yl (R)-3-hydroxypiperidin-1-yl ketone]: the IC50 at AKR1C3 [1] is 29 nM and 20 nM; at AKR1C3 [3], 34 nM and 28 nM. In the case of `C[C@]12CC[C@@H]3c4ccc(C(=O)NCCc5nnn[nH]5)cc4CC[C@H]3[C@@H]1CC=C2c1cncc(F)c1` [Example 21, 17-(5-fluoropyridin-3-yl)-N-[2-(1H-tetrazol-5-yl)ethyl]oestra-1,3,5(10),16-tetraene-3-carboxamide], at AKR1C3 [1], the IC50 was determined as 5 nM. The amount in solution in series [2] (pH 7.4, aqueous buffer) (solubility) came to 158 µg/mL (≈ 334 µM).

Turning to `C[C@]12CC[C@@H]3c4ccc(C(=O)NCc5nnn[nH]5)cc4CC[C@H]3[C@@H]1CC=C2c1cncc(F)c1` [Example 22, 17-(5-fluoropyridin-3-yl)-N-(1H-tetrazol-5-ylmethyl)oestra-1,3,5(10),16-tetraene-3-carboxamide], the IC50 at AKR1C3 [1] stood at 5 nM. For the same compound, the solubility in series [2] (pH 7.4, aqueous buffer) amounted to 153 µg/mL (≈ 334 µM). For the compound `C[C@]12CC[C@@H]3c4ccc(C(=O)N5CCC[C@H]5c5nnn[nH]5)cc4CC[C@H]3[C@@H]1CC=C2c1cncc(F)c1` [Example 28, 17-(5-fluoropyridin-3-yl)oestra-1,3,5(10),16-tetraen-3-yl (S)-2-(1H-tetrazol-5-yl)pyrrolidin-1-yl ketone], the IC50 at AKR1C3 [1] turned out to be 9 nM. This compound also registered a solubility in series [2] (pH 7.4, aqueous buffer) of 166 µg/mL (≈ 333 µM). The corresponding values for `CNC(=O)[C@@H]1CCCN1C(=O)c1ccc2c(c1)CC[C@@H]1[C@@H]2CC[C@]2(C)C(c3cncc(F)c3)=CC[C@@H]12` [Example 29, 1-{[17-(5-fluoropyridin-3-yl)oestra-1,3,5(10),16-tetraen-3-yl]carbonyl}-N-methyl-L-prolinamide] are 10 nM and 24 µg/mL (≈ 49.2 µM).

For the compound `C[C@]12CC[C@@H]3c4ccc(C(=O)NC[C@H](O)CO)cc4CC[C@H]3[C@@H]1CC=C2c1cncc(F)c1` [Example 33, N—[(S)-2,3-dihydroxypropyl]-17-(5-fluoropyridin-3-yl)oestra-1,3,5(10),16-tetraene-3-carboxamide], the IC50 on AKR1C3 [1] was 4 nM and 5 nM. The solubility in series [2] (setting [4]) was determined as 80 µg/mL (≈ 178 µM).

`C[C@@H](O)CNC(=O)c1ccc2c(c1)CC[C@@H]1[C@@H]2CC[C@]2(C)C(c3cncc(F)c3)=CC[C@@H]12` [Example 38, 17-(5-fluoropyridin-3-yl)-N—[(R)-2-hydroxypropyl]oestra-1,3,5(10),16-tetraene-3-carboxamide]: the IC50 on AKR1C3 [1] stood at 4 nM. The solubility in series [2] (pH 7.4, aqueous buffer) stood at 145 µg/mL (≈ 334 µM).

In series [2] (pH 7.4, aqueous buffer), `C[C@@H](CO)NC(=O)c1ccc2c(c1)CC[C@@H]1[C@@H]2CC[C@]2(C)C(c3cncc(F)c3)=CC[C@@H]12` [Example 40, 17-(5-fluoropyridin-3-yl)-N—[(S)-1-(hydroxymethyl)ethyl]oestra-1,3,5(10),16-tetraene-3-carboxamide] returned a solubility of 145 µg/mL (≈ 334 µM). As to `CC1(CNC(=O)c2ccc3c(c2)CC[C@@H]2[C@@H]3CC[C@]3(C)C(c4cncc(F)c4)=CC[C@@H]23)COC1` [Example 43, 17-(5-fluoropyridin-3-yl)-N-[(3-methyloxetan-3-yl)methyl]oestra-1,3,5(10),16-tetraene-3-carboxamide], the IC50 on AKR1C3 [1] turned out to be 7 nM. This compound showed a solubility in series [2] (pH 7.4, aqueous buffer) of 154 µg/mL (≈ 334 µM). As for `C[C@H](O)CNC(=O)c1ccc2c(c1)CC[C@@H]1[C@@H]2CC[C@]2(C)C(c3cncc(F)c3)=CC[C@@H]12` [Example 45, 17-(5-fluoropyridin-3-yl)-N—[(S)-2-hydroxypropyl]oestra-1,3,5(10),16-tetraene-3-carboxamide], the IC50 on AKR1C3 [1] was found to be 6 nM.

For the compound `C[C@]12CC[C@@H]3c4ccc(C(=O)NCCOCCO)cc4CC[C@H]3[C@@H]1CC=C2c1cncc(F)c1` [Example 46, 17-(5-fluoropyridin-3-yl)-N-[2-(2-hydroxyethoxy)ethyl]oestra-1,3,5(10),16-tetraene-3-carboxamide], at AKR1C3 [1], the IC50 stood at 6 nM. The same measure, in the same setting: the result for `C[C@]12CC[C@@H]3c4ccc(C(=O)NCCS(N)(=O)=O)cc4CC[C@H]3[C@@H]1CC=C2c1cncnc1` [Example 47, 17-(pyrimidin-5-yl)-N-(2-sulphamoylethyl)oestra-1,3,5(10),16-tetraene-3-carboxamide] reads 119 nM.
